Measurements from patent US20240254119A1 (THIRD HARMONIC BIO, INC., priority 2022, published 2024).

These compounds were tested against T1, wtKIT (Homo sapiens, UniProt P10721) (assay: HTRF biochemical assay, wtKIT (phosphorylation of a peptide substrate)). Settings: Table 4.
T1 construct: 1888289AM in the reaction mixtures
Procedure, shortened: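 HTRF read-out of FAM-peptide (1 µM) phosphorylation after anti-phosphotyrosine antibody addition and EDTA quench. Reaction: 5.0 nM wtKIT, 400 µM ATP, 10 mM Mn2+, HEPES pH 7.5, 1% DMSO, 3 h, 25 °C; optional enzyme-compound preincubation; enzyme level set for 10-20% conversion.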

T1 sequence (P10721 26-976): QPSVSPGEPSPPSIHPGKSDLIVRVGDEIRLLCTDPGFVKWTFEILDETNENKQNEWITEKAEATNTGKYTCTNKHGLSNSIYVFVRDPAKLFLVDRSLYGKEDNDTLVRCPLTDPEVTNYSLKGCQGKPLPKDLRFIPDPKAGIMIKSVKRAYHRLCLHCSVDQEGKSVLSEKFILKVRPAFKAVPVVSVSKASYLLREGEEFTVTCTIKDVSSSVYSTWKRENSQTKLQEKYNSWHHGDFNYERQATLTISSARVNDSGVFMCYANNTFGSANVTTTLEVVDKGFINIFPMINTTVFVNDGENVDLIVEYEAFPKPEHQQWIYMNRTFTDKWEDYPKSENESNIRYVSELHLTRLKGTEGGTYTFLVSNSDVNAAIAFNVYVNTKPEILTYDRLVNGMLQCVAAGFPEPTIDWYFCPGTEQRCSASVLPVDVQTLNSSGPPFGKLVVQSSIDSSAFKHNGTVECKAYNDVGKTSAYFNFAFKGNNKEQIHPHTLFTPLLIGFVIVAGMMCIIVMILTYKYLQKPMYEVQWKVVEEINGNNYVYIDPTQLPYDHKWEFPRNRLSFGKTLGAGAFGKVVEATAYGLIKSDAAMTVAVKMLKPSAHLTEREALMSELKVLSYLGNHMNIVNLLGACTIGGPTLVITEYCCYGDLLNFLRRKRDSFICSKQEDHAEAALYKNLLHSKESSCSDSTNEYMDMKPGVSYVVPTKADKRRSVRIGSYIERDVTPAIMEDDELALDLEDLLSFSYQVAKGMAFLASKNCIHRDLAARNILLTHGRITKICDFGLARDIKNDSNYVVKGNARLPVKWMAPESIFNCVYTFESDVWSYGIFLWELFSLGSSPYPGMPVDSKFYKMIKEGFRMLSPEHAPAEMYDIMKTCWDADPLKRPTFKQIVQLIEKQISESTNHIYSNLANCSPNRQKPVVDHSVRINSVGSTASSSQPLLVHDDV

IC50 [nM]	SMILES
50 to 500	CNCCOCc1ccn2c(C(=O)Nc3cc(-c4noc(C[C@H](O)C(F)F)n4)ccc3C)cnc2c1 [Compound I-593]
≤ 50	Cc1nc(-c2ccc(C)c(NC(=O)c3cnc4cc(-c5csc(CO)n5)ccn34)c2)no1 [Compound I-594, 7-(2-(hydroxymethyl)thiazol-4-yl)-N-(2-methyl-5-(5-methyl-1,2,4-oxadiazol-3-yl)phenyl)imidazo[1,2-a]pyridine-3-carboxamide]
≤ 50	Cc1nc(-c2ccc(C)c(NC(=O)c3cnc4cc(-c5ncsc5CO)ccn34)c2)no1 [Compound I-595, 7-(5-(hydroxymethyl)thiazol-4-yl)-N-(2-methyl-5-(5-methyl-1,2,4-oxadiazol-3-yl)phenyl)imidazo[1,2-a]pyridine-3-carboxamide]
≤ 50	Cc1ccc(-c2noc(C[C@H](O)C(F)F)n2)cc1NC(=O)c1cnc2cc(COCc3nn[nH]n3)ccn12 [Compound I-597, (S)-7-(((2H-tetrazol-5-yl)methoxy)methyl)-N-(5-(5-(3,3-difluoro-2-hydroxypropyl)-1,2,4-oxadiazol-3-yl)-2-methylphenyl)imidazo[1,2-a]pyridine-3-carboxamide]
50 to 500	CNC(C)COCc1ccn2c(C(=O)Nc3cc(-c4noc(CC(O)C(F)F)n4)ccc3C)cnc2c1 (stereo not shown) [Compound I-598]
50 to 500	CNC(C)COCc1ccn2c(C(=O)Nc3cc(-c4noc(CC(O)C(F)F)n4)ccc3C)cnc2c1 (stereo not shown) [Compound I-599]
50 to 500	Cc1ccc(-c2noc(CC(O)C(F)F)n2)cc1NC(=O)c1cnc2cc(COCC(C)N(C)C(=O)OC(C)(C)C)ccn12 (stereo not shown) [Compound I-600]
≤ 50	Cc1ccc(-c2noc(N3CC(F)(F)C3)n2)cc1NC(=O)c1cnc2cc(Cl)ccn12 [Compound I-601, 7-chloro-N-(5-(5-(3,3-difluoroazetidin-1-yl)-1,2,4-oxadiazol-3-yl)-2-methylphenyl)imidazo[1,2-a]pyridine-3-carboxamide]
≤ 50	Cc1ccc(-c2noc(C[C@H](C)O)n2)cc1NC(=O)c1cnc2cc(Cl)ccn12 [Compound I-602]
≤ 50	COc1ccn2c(C(=O)Nc3cc(-c4noc(N5CC(F)(F)C5)n4)ccc3C)cnc2c1 [Compound I-603, N-(5-(5-(3,3-difluoroazetidin-1-yl)-1,2,4-oxadiazol-3-yl)-2-methylphenyl)-7-methoxyimidazo[1,2-a]pyridine-3-carboxamide]
500 to 5000	Cc1ccc(-c2noc([C@H](O)CO)n2)cc1NC(=O)c1cnc2cc(Cl)ccn12 [Compound I-604]
50 to 500	Cc1ccc(-c2noc([C@H]3C[C@@H]3F)n2)cc1NC(=O)c1cnc2cc(F)c(Cl)cn12 [Compound I-605]
50 to 500	Cc1ccc(-c2noc(CC(C)O)n2)cc1NC(=O)c1cnc2cc(F)ccn12 (stereo not shown) [Compound I-606]
500 to 5000	COC[C@@H](O)c1nc(-c2ccc(C)c(NC(=O)c3cnc4cc(C)ccn34)c2)no1 [Compound I-607]
50 to 500	COCC(O)c1nc(-c2ccc(C)c(NC(=O)c3cnc4cc(C)ccn34)c2)no1 (stereo not shown) [Compound I-608]
50 to 500	Cc1ccc(-c2noc(N3CC(F)(F)C3)n2)cc1NC(=O)c1cnc2cc(F)c(Cl)cn12 [Compound I-610]
≤ 50	COc1cc2ncc(C(=O)Nc3cc(-c4noc(N5CC(F)(F)C5)n4)ccc3C)n2cc1F [Compound I-611]
≤ 50	Cc1ccc(-c2noc([C@H]3C[C@@H]3F)n2)cc1NC(=O)c1cnc2cc(Cl)c(F)cn12 [Compound I-613, 7-Chloro-6-fluoro-N-(5-(5-((1R,2S)-2-fluorocyclopropyl)-1,2,4-oxadiazol-3-yl)-2-methylphenyl)imidazo[1,2-a]pyridine-3-carboxamide]
≤ 50	Cc1ccc(-c2noc(CC3CCCO3)n2)cc1NC(=O)c1cnc2cc(Cl)ccn12 (stereo not shown) [Compound I-615, 7-Chloro-N-[2-methyl-5-[5-(tetrahydrofuran-2-ylmethyl)-1,2,4-oxadiazol-3-yl]phenyl]imidazo[1,2-a]pyridine-3-carboxamide]
≤ 50	CC[C@@H](O)Cc1nc(-c2ccc(C)c(NC(=O)c3cnc4cc(Cl)ccn34)c2)no1 [Compound I-616, 7-chloro-N-[5-[5-[(2R)-2-hydroxybutyl]-1,2,4-oxadiazol-3-yl]-2-methyl-phenyl]imidazo[1,2-a]pyridine-3-carboxamide]
≤ 50	Cc1ccc(-c2noc([C@H]3C[C@@H]3F)n2)cc1NC(=O)c1cnc2cc(COCC3(O)CC3)ccn12 [Compound I-622, N-(5-(5-((1R,2S)-2-fluorocyclopropyl)-1,2,4-oxadiazol-3-yl)-2-methylphenyl)-7-(((1-hydroxycyclopropyl)methoxy)methyl)imidazo[1,2-a]pyridine-3-carboxamide]
500 to 5000	Cc1ccc(-c2noc([C@H]3C[C@@H](N)C3)n2)cc1NC(=O)c1cnc2cc(Cl)ccn12 [Compound I-623]
≤ 50	Cc1ccc(-c2noc([C@H]3CCN3)n2)cc1NC(=O)c1cnc2cc(-c3ccn(C)n3)ccn12 [Compound I-624, N-[5-[5-[(2R)-azetidin-2-yl]-1,2,4-oxadiazol-3-yl]-2-methyl-phenyl]-7-(1-methylpyrazol-3-yl)imidazo[1,2-a]pyridine-3-carboxamide]

IC50 [nM]	SMILES
≤ 50	Cc1ccc(-c2noc(N3CC(F)(F)C3)n2)cc1NC(=O)c1cnn2cc(Cl)ccc12 [Compound I-625]
50 to 500	Cc1ccc(-c2noc(N3CC(F)(F)C3)n2)cc1NC(=O)c1cnn2cc(F)ccc12 [Compound I-626]
≤ 50	Cc1ccc(-c2noc([C@@H]3CC4(CC4)CN3)n2)cc1NC(=O)c1cnc2cc(Cl)ccn12 [Compound I-627, (S)—N-(5-(5-(5-azaspiro[2.4]heptan-6-yl)-1,2,4-oxadiazol-3-yl)-2-methylphenyl)-7-chloroimidazo[1,2-a]pyridine-3-carboxamide]
≤ 50	Cc1ccc(-c2noc([C@@H]3CC4(CC4)CN3)n2)cc1NC(=O)c1cnc2cc(F)ccn12 [Compound I-628, (S)—N-(5-(5-(5-azaspiro[2.4]heptan-6-yl)-1,2,4-oxadiazol-3-yl)-2-methylphenyl)-7-fluoroimidazo[1,2-a]pyridine-3-carboxamide]
≤ 50	Cc1nc(-c2ccc(C)c(NC(=O)c3cnc4cc(OCCCN5CCCC5)ccn34)c2)no1 [Compound I-629, N-(2-methyl-5-(5-methyl-1,2,4-oxadiazol-3-yl)phenyl)-7-(3-(pyrrolidin-1-yl)propoxy)imidazo[1,2-a]pyridine-3-carboxamide]
≤ 50	Cc1ccc(-c2noc([C@H]3C[C@@H]3F)n2)cc1NC(=O)c1cnc2cc(OCCCN3CCCC3)ccn12 [Compound I-630, N-(5-(5-((1R,2S)-2-fluorocyclopropyl)-1,2,4-oxadiazol-3-yl)-2-methylphenyl)-7-(3-(pyrrolidin-1-yl)propoxy)imidazo[1,2-a]pyridine-3-carboxamide]
≤ 50	Cc1ccc(-c2noc(N3CC(F)(F)C3)n2)cc1NC(=O)c1cnc2cc(OCCCN3CCCC3)ccn12 [Compound I-631, N-(5-(5-(3,3-difluoroazetidin-1-yl)-1,2,4-oxadiazol-3-yl)-2-methylphenyl)-7-(3-(pyrrolidin-1-yl)propoxy)imidazo[1,2-a]pyridine-3-carboxamide]
≤ 50	COc1ccn2c(C(=O)Nc3cc(-c4noc(CC5COC5)n4)ccc3C)cnc2c1 [Compound I-633, 7-Methoxy-N-[2-methyl-5-[5-(oxetan-3-ylmethyl)-1,2,4-oxadiazol-3-yl]phenyl]imidazo[1,2-a]pyridine-3-carboxamide]
≤ 50	Cc1ccc(-c2noc([C@@H]3CC4(CC4)CN3)n2)cc1NC(=O)c1cnc2cc(-c3cscn3)ccn12 [Compound I-635, N-[5-[5-[(6S)-5-azaspiro[2.4]heptan-6-yl]-1,2,4-oxadiazol-3-yl]-2-methyl-phenyl]-7-thiazol-4-yl-imidazo[1,2-a]pyridine-3-carboxamide]
50 to 500	Cc1ccc(-c2noc(CC3COC3)n2)cc1NC(=O)c1cnc2cc(COCC3(O)CC3)ccn12 [Compound I-637]
≤ 50	COCc1ccn2c(C(=O)Nc3cc(-c4noc([C@@H]5CC6(CC6)CN5)n4)ccc3C)cnc2c1 [Compound I-638, N-[5-[5-[(6S)-5-azaspiro[2.4]heptan-6-yl]-1,2,4-oxadiazol-3-yl]-2-methyl-phenyl]-7-(methoxymethyl)imidazo[1,2-a]pyridine-3-carboxamide]
50 to 500	Cc1ccc(-c2ncon2)cc1NC(=O)c1cnn2ccccc12 [Compound I-640, N-(2-methyl-5-(1,2,4-oxadiazol-3-yl)phenyl)pyrazolo[1,5-a]pyridine-3-carboxamide]
500 to 5000	Cc1ccc(-c2ncon2)cc1NC(=O)c1cnc2cc(COCC(C)(C)O)ccn12 [Compound I-641, 7-((2-hydroxy-2-methylpropoxy)methyl)-N-(2-methyl-5-(1,2,4-oxadiazol-3-yl)phenyl)imidazo[1,2-a]pyridine-3-carboxamide]
50 to 500	COCc1ccn2c(C(=O)Nc3cc(-c4noc(CCN5CCCCC5)n4)ccc3C)cnc2c1 [Compound I-666]
≤ 50	CCc1nc(-c2ccc(C)c(NC(=O)c3cnc4cc(-c5csc(CO)n5)ccn34)c2)no1 [Compound I-672]
≤ 50	Cc1nc(-c2ccc(C)c(NC(=O)c3cnc4cc(Cl)ccn34)c2)no1 [Compound I-675]
50 to 500	COCc1ccn2c(C(=O)Nc3cc(-c4ncon4)ccc3C)cnc2c1 [Compound I-677]
≤ 50	Cc1ccc(-c2ncon2)cc1NC(=O)c1cnc2cc(-c3ccn(C)n3)ccn12 [Compound I-684]
≤ 50	Cc1ccc(-c2ncon2)cc1NC(=O)c1cnc2cc(-c3csc(CO)n3)ccn12 [Compound I-685]
50 to 500	Cc1nc(-c2ccc(C)c(NC(=O)c3cnc4cc(C5COC5)ccn34)c2)no1 [Compound I-687]
≤ 50	Cc1ccc(-c2ncon2)cc1NC(=O)c1cnc2cc(-c3cscn3)ccn12 [Compound I-694]
50 to 500	Cc1ccc(-c2ncon2)cc1NC(=O)c1cnc2cc(COCCO)ccn12 [Compound I-700]
≤ 50	CCNc1ccn2c(C(=O)Nc3cc(-c4ncon4)ccc3C)cnc2c1 [Compound I-706]
